From patent US20240391862A1, “(1,4,5-TRISUBSTITUTED-1H-PYRAZOL-3-YL)OXY-2-ALKOXY ALKYL ACIDS AND THEIR DERIVATIVES, THEIR SALTS AND THEIR USE AS HERBICIDAL AGENTS” (Bayer AKtiengesellschaft, priority 2021, published 2024)

Columns and labels:
Test in all cases: Post-emergence herbicidal effect, greenhouse pot test
MATIN = assay type: in vivo, Tripleurospermum inodorum
Excerpt: (§1) • ALOMY: Alopecurus myosuroides SETVI: Setaria viridis • AVEFA: Avena fatua POLCO: Fallopia convolvulus • AMARE: Amaranthus retroflexus ECHCG: Echinochloa crus-galli • LOLRJ: Lolium rigidum STEME: Stellaria media • VERPE: Veronica persica MATIN: Tripleurospermum inodorum • DIGSA: Digitaria sanguinalis ABUTH: Abutylon threophrasti • TRZAS: Triticum aestivum VIOTR: Viola tricolor • BRSNW: Brassica napus ZEAMX: Zea mays • PHBPU: Ipomoea purpurea GLXMA: Glycine max • ORYSA: Oryza sativa HORMU: Hordeum murinum
(§2) Seeds of monocotyledonous and dicotyledonous weeds and crop plants are placed in sandy loam in plastic or organic planting pots, covered with soil and cultivated in a greenhouse under controlled growth conditions. 2 to 3 weeks after sowing, the trial plants are treated at the one-leaf stage. The compounds of the invention, formulated in the form of wettable powders (WP) or as emulsion concentrates (EC), are then sprayed onto the green parts of the plants as aqueous suspension or emulsion with addition of 0.5% additive at a water application rate of 600 l/ha (converted). After the test plants have been kept in the greenhouse under optimum growth conditions for about 3 weeks, the activity of the preparations is rated visually in comparison to untreated controls. For example, 100% activity=the plants have died, 0% activity=like control plants.
(§3) Tables 20a to 38c below show the effects/crop compatibilities of selected compounds of the general formula (I) on various harmful plants at an application rate corresponding to 20 to 320 g/ha, which were obtained by the trial procedure specified above.

KCHSC = assay type: in vivo; conditions: 320 g/ha
Protocol: as §2, with “plants. Tables 20a to 38c below show the effects/crop compatibilities of selected compounds of the general formula (I) on various harmful plants at an application rate corresponding to 20 to 320 g/ha, which were obtained by the trial procedure specified above.” for “plants.”

ABUTH = assay type: in vivo, Abutilon theophrasti; conditions: visual rating about 3 weeks after treatment
Excerpt: as §1, §2, §3

ALOMY = assay type: in vivo, Alopecurus myosuroides; conditions: visual rating about 3 weeks after treatment
Excerpt: as §1, §2, §3

LOLRI = assay type: in vivo, Lolium rigidum
Excerpt: as §1, §2, §3

VIOTR = assay type: in vivo, Viola tricolor
Excerpt: as §1, §2, §3

ECHCG = assay type: in vivo, Echinochloa crus-galli
Excerpt: as §1, §2, §3

PHBPU = assay type: in vivo, Ipomoea purpurea
Excerpt: as §1, §2, §3

VERPE = assay type: in vivo, Veronica persica
Excerpt: as §1, §2, §3

POLCO = assay type: in vivo, Fallopia convolvulus
Excerpt: as §1, §2, §3

AVEFA = assay type: in vivo, Avena fatua; conditions: visual rating about 3 weeks after treatment
Excerpt: as §1, §2, §3

SETVI = assay type: in vivo, Setaria viridis
Excerpt: as §1, §2, §3

AMARE = assay type: in vivo, Amaranthus retroflexus; conditions: Amaranthus retroflexus, 504 h, 320 g/ha, visual rating about 3 weeks after treatment, read-out: Post-emergence effect against AMARE
Excerpt: as §1, §2, §3

COC(Oc1nn(-c2cc(F)ccc2F)c(-c2cncc(F)c2)c1C1CC1)C(=O)O (stereo not shown) [Example I-109]
80%: pest or weed control at 320 g/ha (MATIN; Tripleurospermum inodorum, 504 h, 320 g/ha, read-out: Post-emergence effect against MATIN in %) | pest or weed control at 320 g/ha (KCHSC; 504 h, read-out: Post-emergence effect against KCHSC in %) | pest or weed control at 20 g/ha (ABUTH; Abutilon theophrasti, 504 h, 20 g/ha, read-out: Post-emergence effect against ABUTH) | pest or weed control at 80 g/ha (ABUTH; Abutilon theophrasti, 504 h, 80 g/ha, read-out: Post-emergence effect against ABUTH) | pest or weed control at 20 g/ha (ECHCG; Echinochloa crus-galli, 504 h, 20 g/ha, visual rating about 3 weeks after treatment, read-out: Post-emergence effect against ECHCG) | pest or weed control at 20 g/ha (VERPE; Veronica persica, 504 h, 20 g/ha, read-out: Post-emergence effect against VERPE in %) | pest or weed control at 80 g/ha (VERPE; Veronica persica, 504 h, 80 g/ha, read-out: Post-emergence effect against VERPE in %) | pest or weed control at 320 g/ha (VERPE; Veronica persica, 504 h, 320 g/ha, read-out: Post-emergence effect against VERPE in %) | pest or weed control at 80 g/ha (POLCO; Fallopia convolvulus, 504 h, 80 g/ha, read-out: Post-emergence effect against POLCO in %) | pest or weed control at 80 g/ha (AVEFA; Avena fatua, 504 h, 80 g/ha, read-out: Post-emergence effect against AVEFA) | pest or weed control at 320 g/ha (SETVI; Setaria viridis, 504 h, 320 g/ha, read-out: Post-emergence effect against SETVI in %)
90%: pest or weed control at 320 g/ha (ABUTH; Abutilon theophrasti, 504 h, 320 g/ha, read-out: Post-emergence effect against ABUTH) | pest or weed control at 320 g/ha (ALOMY; Alopecurus myosuroides, 504 h, 320 g/ha, read-out: Post-emergence effect against ALOMY) | pest or weed control at 80 g/ha (LOLRI; Lolium rigidum, 504 h, 80 g/ha, read-out: Post-emergence effect against LOLRI in %) | pest or weed control at 320 g/ha (LOLRI; Lolium rigidum, 504 h, 320 g/ha, read-out: Post-emergence effect against LOLRI in %) | pest or weed control at 80 g/ha (VIOTR; Viola tricolor, 504 h, 80 g/ha, read-out: Post-emergence effect against VIOTR in %) | pest or weed control at 320 g/ha (VIOTR; Viola tricolor, 504 h, 320 g/ha, read-out: Post-emergence effect against VIOTR in %) | pest or weed control at 80 g/ha (ECHCG; Echinochloa crus-galli, 504 h, 80 g/ha, read-out: Post-emergence effect against ECHCG in %) | pest or weed control at 320 g/ha (ECHCG; Echinochloa crus-galli, 504 h, 320 g/ha, read-out: Post-emergence effect against ECHCG in %) | pest or weed control at 80 g/ha (PHBPU; Ipomoea purpurea, 504 h, 80 g/ha, read-out: Post-emergence effect against PHBPU in %) | pest or weed control at 320 g/ha (PHBPU; Ipomoea purpurea, 504 h, 320 g/ha, read-out: Post-emergence effect against PHBPU in %) | pest or weed control at 320 g/ha (POLCO; Fallopia convolvulus, 504 h, 320 g/ha, read-out: Post-emergence effect against POLCO in %) | pest or weed control at 320 g/ha (AVEFA; Avena fatua, 504 h, 320 g/ha, read-out: Post-emergence effect against AVEFA)

COC(Oc1nn(-c2cc(F)ccc2F)c(-c2cncc(F)c2)c1C1CC1)C(=O)O (stereo not shown) [Example I-110]
90%: Post-emergence effect against ABUTH (ABUTH; 80 g/ha) | Post-emergence effect against ABUTH (ABUTH; 320 g/ha) | Post-emergence effect against LOLRI in % (LOLRI; 320 g/ha) | Post-emergence effect against ECHCG (ECHCG; 20 g/ha, visual rating about 3 weeks after treatment) | Post-emergence effect against ECHCG in % (ECHCG; 80 g/ha) | Post-emergence effect against ECHCG in % (ECHCG; 320 g/ha) | Post-emergence effect against PHBPU in % (PHBPU; 80 g/ha) | Post-emergence effect against PHBPU in % (PHBPU; 320 g/ha) | pest or weed control at 20 g/ha (PHBPU; Ipomoea purpurea, 504 h, 20 g/ha, read-out: Post-emergence effect against PHBPU in %) | Post-emergence effect against VERPE in % (VERPE; 320 g/ha) | Post-emergence effect against POLCO in % (POLCO; 320 g/ha) | Post-emergence effect against AVEFA (AVEFA; 80 g/ha) | Post-emergence effect against AVEFA (AVEFA; 320 g/ha)
80%: Post-emergence effect against MATIN in % (MATIN; 320 g/ha) | pest or weed control at 80 g/ha (MATIN; Tripleurospermum inodorum, 504 h, 80 g/ha, read-out: Post-emergence effect against MATIN in %) | Post-emergence effect against KCHSC in % (KCHSC) | Post-emergence effect against ABUTH (ABUTH; 20 g/ha) | pest or weed control at 80 g/ha (ALOMY; Alopecurus myosuroides, 504 h, 80 g/ha, read-out: Post-emergence effect against ALOMY) | Post-emergence effect against VIOTR in % (VIOTR; 80 g/ha) | Post-emergence effect against VIOTR in % (VIOTR; 320 g/ha) | pest or weed control at 20 g/ha (VIOTR; Viola tricolor, 504 h, 20 g/ha, read-out: Post-emergence effect against VIOTR in %) | pest or weed control at 320 g/ha (AMARE) | Post-emergence effect against VERPE in % (VERPE; 20 g/ha) | Post-emergence effect against VERPE in % (VERPE; 80 g/ha) | Post-emergence effect against POLCO in % (POLCO; 80 g/ha) | pest or weed control at 20 g/ha (POLCO; Fallopia convolvulus, 504 h, 20 g/ha, read-out: Post-emergence effect against POLCO in %) | Post-emergence effect against SETVI in % (SETVI; 320 g/ha) | pest or weed control at 80 g/ha (SETVI; Setaria viridis, 504 h, 80 g/ha, read-out: Post-emergence effect against SETVI in %)
100%: Post-emergence effect against ALOMY (ALOMY; 320 g/ha)
